In paper PMC11883961 (RSC Chemical Biology, 2025):

How the values were obtained:
[1] = molecular target: FKBP12-LgBiT and MAPRE1 (N183-Y268)-SmBiT in HEK293T cells (Homo sapiens, UniProt P62942+Q15691); assay: NanoBiT FKBP12-MAPRE1 recruitment experiments; type: cell-based
[2] = molecular target: FKBP12 ligand pocket (FKBP12-LgBiT/MAPRE1-SmBiT in HEK293T cells) (Homo sapiens, UniProt P62942+Q15691); assay: NanoBiT FKBP ligand competition experiments; type: cell-based; settings: 80 μM competitor; recruiters up to 20 μM
Sequence of FKBP12 ligand pocket (FKBP12-LgBiT/MAPRE1-SmBiT in HEK293T cells) (P62942 whole entry): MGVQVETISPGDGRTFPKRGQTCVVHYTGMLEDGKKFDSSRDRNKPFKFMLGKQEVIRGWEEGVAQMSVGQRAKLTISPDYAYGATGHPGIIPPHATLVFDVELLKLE
Sequence of FKBP12 ligand pocket (FKBP12-LgBiT/MAPRE1-SmBiT in HEK293T cells) (Q15691 183-268): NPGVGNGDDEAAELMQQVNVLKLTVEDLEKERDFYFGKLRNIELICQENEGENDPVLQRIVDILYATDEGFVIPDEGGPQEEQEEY

Sequence of FKBP12-LgBiT and MAPRE1 (N183-Y268)-SmBiT in HEK293T cells (P62942 whole entry): as the sequence (P62942 whole entry) above
Sequence of FKBP12-LgBiT and MAPRE1 (N183-Y268)-SmBiT in HEK293T cells (Q15691 183-268): as the sequence (Q15691 183-268) above

## CO[C@H]1C[C@@H]2CC[C@@H](C)[C@@](O)(O2)C(=O)C(=O)N2CCCC[C@H]2C(=O)O[C@H]([C@H](C)C[C@@H]2CC[C@@H](O)[C@H](OC)C2)CC(=O)[C@H](C)/C=C(\C)[C@@H](O)[C@@H](OC)C(=O)[C@H](C)C[C@H](C)/C=C/C=C/C=C/1C [Rapamycin]
[1]
  recruitment of MAPRE1 to FKBP12 in cells: neither of which measurably recruits MAPRE1 to FKBP12
[2]
  ability to outcompete glue recruiters for FKBP12: able to outcompete even the highest dose of all glue recruiters tested
